Test results taken from ChEMBL document CHEMBL5723035, “Affinity Biochemical Literature for EUbOPEN Chemogenomic Library” (2024).
Blank lines part the entries; values can stand above or below the compound they belong to. Non-standard residues stand in square brackets, D forms with d. Residues, ends and D or L forms follow the SMILES beside them. *: point of attachment. Lys(Me,2-norbornyl) = CN(CCCC[C@H](N)C(=O)O)C1CC2CCC1C2; Benzoyl(4-tBu) = CC(C)(C)c1ccc(C(=O)*)cc1; CH2Cl = ClC*

What was measured:
[1] = target: T1, Caspase-3 (Homo sapiens, UniProt P42574); experiment: Affinity Biochemical interaction: (enzymatic assay (fluorogenic substrate cleavage)) EUB0002175aAD CASP3; type: functional; design: mode of action Inhibitor, recommended concentration 1 uM
T1 sequence (P42574 whole entry): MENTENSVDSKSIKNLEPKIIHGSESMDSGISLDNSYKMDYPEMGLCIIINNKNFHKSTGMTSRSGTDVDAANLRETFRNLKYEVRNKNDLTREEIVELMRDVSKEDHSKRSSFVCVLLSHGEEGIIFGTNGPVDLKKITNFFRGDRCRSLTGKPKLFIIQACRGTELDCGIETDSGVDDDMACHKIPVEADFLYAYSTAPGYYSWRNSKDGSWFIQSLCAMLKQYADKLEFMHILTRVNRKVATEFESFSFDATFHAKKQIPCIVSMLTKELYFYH

[2] = target: T2, Histone acetyltransferase KAT6A (Homo sapiens, UniProt Q92794); experiment: Affinity Biochemical interaction: (AlphaScreen) EUB0001094a MYST3; type: functional; design: mode of action Inhibitor, recommended concentration 1 uM
[3] = target: T2, Histone acetyltransferase KAT6A; experiment: Affinity Biochemical interaction: (SPR) EUB0001094a MYST3; design: mode of action Inhibitor, recommended concentration 1 uM
[4] = target: T3, Histone acetyltransferase KAT7 (Homo sapiens, UniProt O95251); experiment: Affinity Biochemical interaction: (AlphaScreen) EUB0001094a MYST2; type: functional; design: mode of action Inhibitor, recommended concentration 1 uM
[5] = target: T3, Histone acetyltransferase KAT7; experiment: Affinity Biochemical interaction: (SPR) EUB0001094a MYST2; design: mode of action Inhibitor, recommended concentration 1 uM
[6] = target: Calpain-2 catalytic subunit (Homo sapiens, UniProt P17655); experiment: Affinity Biochemical interaction: (Colorimetric assay, lysis of casein substrate and analysis of protease inhibition by reading wavelength at 595 nm) EUB0002195a CAPN2; type: functional; design: mode of action Inhibitor, recommended concentration 1 uM
[7] = target: Cathepsin B (Homo sapiens, UniProt P07858); experiment: Affinity Biochemical interaction: (Colorimetric assay, lysis of casein substrate and analysis of protease inhibition by reading wavelength at 595 nm) EUB0002195a CTSB; type: functional; design: mode of action Inhibitor, recommended concentration 1 uM
[8] = target: Procathepsin L (Homo sapiens, UniProt P07711); experiment: Affinity Biochemical interaction: (Colorimetric assay, lysis of casein substrate and analysis of protease inhibition by reading wavelength at 595 nm) EUB0002195a CTSL; type: functional; design: mode of action Inhibitor, recommended concentration 1 uM
[9] = target: Caspase-1 (Homo sapiens, UniProt P29466); experiment: Affinity Biochemical interaction: (enzymatic assay (fluorogenic substrate cleavage)) EUB0002198aAD CASP1; type: functional; design: mode of action Inhibitor, recommended concentration 1 uM
[10] = target: T4, Caspase-8 (Homo sapiens, UniProt Q14790); experiment: Affinity Biochemical interaction: (enzymatic assay (fluorogenic substrate cleavage)) EUB0002198aAD CASP8; type: functional; design: mode of action Inhibitor, recommended concentration 1 uM
[11] = target: T5, Chromobox protein homolog 7 (Homo sapiens, UniProt O95931); experiment: Affinity Biochemical interaction: (ITC) EUB0001090a CBX7; design: mode of action Inhibitor, recommended concentration 1 uM
T5 sequence (O95931 whole entry): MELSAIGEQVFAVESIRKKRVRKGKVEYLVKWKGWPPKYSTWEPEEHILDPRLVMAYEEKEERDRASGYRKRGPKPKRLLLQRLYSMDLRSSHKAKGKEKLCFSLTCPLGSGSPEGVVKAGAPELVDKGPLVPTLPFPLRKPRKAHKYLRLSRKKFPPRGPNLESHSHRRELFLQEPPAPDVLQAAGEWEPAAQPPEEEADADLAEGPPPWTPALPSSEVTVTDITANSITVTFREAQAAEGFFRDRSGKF

[12] = target: T5, Chromobox protein homolog 7; experiment: Affinity Biochemical interaction: (SPR) EUB0001090a CBX7; design: mode of action Inhibitor, recommended concentration 1 uM
[13] = target: T5, Chromobox protein homolog 7; experiment: Affinity Biochemical interaction: (AlphaScreen) EUB0001090a CBX7; type: functional; design: mode of action Inhibitor, recommended concentration 1 uM
[14] = target: Diacylglycerol lipase-beta (Homo sapiens) (UniProt Q8NCG7); experiment: Affinity Biochemical interaction: (Gel-based competitive ABPP) EUB0002547a DAGLB; type: functional; design: recommended concentration 1 uM; conditions: Affinity Biochemical Source Knowledge https://pubs.acs.org/doi/epdf/10.1021/jm400898x
[15] = Affinity Biochemical interaction: (inhibition of enzyme activity, competitive binding assay (fluorescent substrate cleavage)) EUB0002137aAD CAPN2
[16] = target: Histone deacetylase 3 (Homo sapiens, UniProt O15379)
[17] = target: T6, Bromodomain-containing protein 2 (Homo sapiens, UniProt P25440); experiment: (§1) Affinity Biochemical interaction: (BROMOscan assay) EUB0002282a BRD2; design: mode of action Inhibitor, recommended concentration 1 uM
[18] = target: T6, Bromodomain-containing protein 2; experiment: as §1; design: mode of action Inhibitor, recommended concentration 1 uM; remark: listed apart in the source
[19] = target: T7, Bromodomain-containing protein 3 (Homo sapiens, UniProt Q15059); experiment: (§2) Affinity Biochemical interaction: (BROMOscan assay) EUB0002282a BRD3; design: mode of action Inhibitor, recommended concentration 1 uM
[20] = target: T7, Bromodomain-containing protein 3; experiment: as §2; design: mode of action Inhibitor, recommended concentration 1 uM; remark: listed apart in the source
[21] = target: T8, Bromodomain-containing protein 4 (Homo sapiens, UniProt O60885); experiment: (§3) Affinity Biochemical interaction: (AlphaLISA) EUB0002282a BRD4; type: functional; design: mode of action Inhibitor, recommended concentration 1 uM
[22] = target: T8, Bromodomain-containing protein 4; experiment: as §3; type: functional; design: mode of action Inhibitor, recommended concentration 1 uM; remark: listed apart in the source
[23] = target: Bromodomain testis-specific protein (Homo sapiens, UniProt Q58F21); experiment: Affinity Biochemical interaction: (BROMOscan assay) EUB0002282a BRDT; design: mode of action Inhibitor, recommended concentration 1 uM
[24] = target: Caspase-7 (Homo sapiens, UniProt P55210); experiment: Affinity Biochemical interaction: (enzymatic assay (fluorogenic substrate cleavage)) EUB0002173aAD CASP7; type: functional; design: mode of action Inhibitor, recommended concentration 1 uM
[25] = target: T4, Caspase-8; experiment: Affinity Biochemical interaction: (enzymatic assay (fluorogenic substrate cleavage)) EUB0002173aAD CASP8; type: functional; design: mode of action Inhibitor, recommended concentration 1 uM
[26] = target: Caspase-10 (Homo sapiens, UniProt Q92851); experiment: Affinity Biochemical interaction: (enzymatic assay (fluorogenic substrate cleavage)) EUB0002173aAD CASP10; type: functional; design: mode of action Inhibitor, recommended concentration 1 uM
[27] = target: Protein arginine N-methyltransferase 5 (Homo sapiens, UniProt O14744); experiment: Affinity Biochemical interaction: (SPR) EUB0002223a PRMT5; design: mode of action Inhibitor, recommended concentration 1 uM
[28] = target: Protein arginine N-methyltransferase 7 (Homo sapiens, UniProt Q9NVM4); experiment: Affinity Biochemical interaction: (SPR) EUB0002223a PRMT7; design: mode of action Inhibitor, recommended concentration 1 uM
[29] = target: Caspase-9 (Homo sapiens, UniProt P55211); experiment: Affinity Biochemical interaction: (peptide substrate detection probe bound to magnetic beads, detection of liberated fluorophores) EUB0002203aAD CASP9; type: functional; design: mode of action Inhibitor, recommended concentration 1 uM

T6 sequence (P25440 whole entry): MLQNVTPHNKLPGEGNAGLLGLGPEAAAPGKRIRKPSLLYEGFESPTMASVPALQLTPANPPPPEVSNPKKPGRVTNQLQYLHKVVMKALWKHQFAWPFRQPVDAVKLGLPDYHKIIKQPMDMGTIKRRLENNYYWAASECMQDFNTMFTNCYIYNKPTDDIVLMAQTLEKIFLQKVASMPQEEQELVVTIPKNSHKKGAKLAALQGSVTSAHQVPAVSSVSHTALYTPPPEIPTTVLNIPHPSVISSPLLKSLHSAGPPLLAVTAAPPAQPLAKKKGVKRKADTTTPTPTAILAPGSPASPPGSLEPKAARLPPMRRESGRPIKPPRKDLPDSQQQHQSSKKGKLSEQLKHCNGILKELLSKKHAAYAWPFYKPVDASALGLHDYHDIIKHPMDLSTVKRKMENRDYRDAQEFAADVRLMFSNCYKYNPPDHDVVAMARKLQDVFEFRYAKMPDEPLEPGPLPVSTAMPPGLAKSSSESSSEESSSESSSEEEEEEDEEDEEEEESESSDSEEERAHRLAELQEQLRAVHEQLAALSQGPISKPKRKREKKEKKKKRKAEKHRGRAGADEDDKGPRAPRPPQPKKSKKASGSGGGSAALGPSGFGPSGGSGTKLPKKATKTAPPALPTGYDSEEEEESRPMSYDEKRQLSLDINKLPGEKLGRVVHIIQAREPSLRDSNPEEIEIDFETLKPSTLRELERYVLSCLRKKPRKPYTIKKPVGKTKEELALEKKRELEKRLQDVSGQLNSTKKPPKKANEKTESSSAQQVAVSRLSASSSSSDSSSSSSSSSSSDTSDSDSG
T7 sequence (Q15059 whole entry): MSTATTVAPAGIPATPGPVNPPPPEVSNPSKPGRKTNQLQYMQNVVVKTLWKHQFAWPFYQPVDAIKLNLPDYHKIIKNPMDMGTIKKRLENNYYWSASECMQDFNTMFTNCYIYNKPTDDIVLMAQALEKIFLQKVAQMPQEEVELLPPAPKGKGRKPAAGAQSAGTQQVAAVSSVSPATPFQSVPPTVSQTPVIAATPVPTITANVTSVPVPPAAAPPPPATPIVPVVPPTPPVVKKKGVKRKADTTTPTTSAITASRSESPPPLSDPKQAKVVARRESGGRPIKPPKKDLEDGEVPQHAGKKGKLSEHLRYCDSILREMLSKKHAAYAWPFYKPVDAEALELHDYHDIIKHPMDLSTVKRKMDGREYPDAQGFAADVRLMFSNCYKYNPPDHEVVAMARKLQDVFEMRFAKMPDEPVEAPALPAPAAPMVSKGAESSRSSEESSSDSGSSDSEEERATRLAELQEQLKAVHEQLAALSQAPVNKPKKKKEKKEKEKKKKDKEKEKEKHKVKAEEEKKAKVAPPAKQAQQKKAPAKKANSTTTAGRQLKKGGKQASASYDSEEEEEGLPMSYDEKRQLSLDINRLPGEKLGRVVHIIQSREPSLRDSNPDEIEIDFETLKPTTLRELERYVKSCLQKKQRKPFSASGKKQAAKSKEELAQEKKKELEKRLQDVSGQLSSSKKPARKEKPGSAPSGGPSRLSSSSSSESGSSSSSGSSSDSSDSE
T2 sequence (Q92794 whole entry): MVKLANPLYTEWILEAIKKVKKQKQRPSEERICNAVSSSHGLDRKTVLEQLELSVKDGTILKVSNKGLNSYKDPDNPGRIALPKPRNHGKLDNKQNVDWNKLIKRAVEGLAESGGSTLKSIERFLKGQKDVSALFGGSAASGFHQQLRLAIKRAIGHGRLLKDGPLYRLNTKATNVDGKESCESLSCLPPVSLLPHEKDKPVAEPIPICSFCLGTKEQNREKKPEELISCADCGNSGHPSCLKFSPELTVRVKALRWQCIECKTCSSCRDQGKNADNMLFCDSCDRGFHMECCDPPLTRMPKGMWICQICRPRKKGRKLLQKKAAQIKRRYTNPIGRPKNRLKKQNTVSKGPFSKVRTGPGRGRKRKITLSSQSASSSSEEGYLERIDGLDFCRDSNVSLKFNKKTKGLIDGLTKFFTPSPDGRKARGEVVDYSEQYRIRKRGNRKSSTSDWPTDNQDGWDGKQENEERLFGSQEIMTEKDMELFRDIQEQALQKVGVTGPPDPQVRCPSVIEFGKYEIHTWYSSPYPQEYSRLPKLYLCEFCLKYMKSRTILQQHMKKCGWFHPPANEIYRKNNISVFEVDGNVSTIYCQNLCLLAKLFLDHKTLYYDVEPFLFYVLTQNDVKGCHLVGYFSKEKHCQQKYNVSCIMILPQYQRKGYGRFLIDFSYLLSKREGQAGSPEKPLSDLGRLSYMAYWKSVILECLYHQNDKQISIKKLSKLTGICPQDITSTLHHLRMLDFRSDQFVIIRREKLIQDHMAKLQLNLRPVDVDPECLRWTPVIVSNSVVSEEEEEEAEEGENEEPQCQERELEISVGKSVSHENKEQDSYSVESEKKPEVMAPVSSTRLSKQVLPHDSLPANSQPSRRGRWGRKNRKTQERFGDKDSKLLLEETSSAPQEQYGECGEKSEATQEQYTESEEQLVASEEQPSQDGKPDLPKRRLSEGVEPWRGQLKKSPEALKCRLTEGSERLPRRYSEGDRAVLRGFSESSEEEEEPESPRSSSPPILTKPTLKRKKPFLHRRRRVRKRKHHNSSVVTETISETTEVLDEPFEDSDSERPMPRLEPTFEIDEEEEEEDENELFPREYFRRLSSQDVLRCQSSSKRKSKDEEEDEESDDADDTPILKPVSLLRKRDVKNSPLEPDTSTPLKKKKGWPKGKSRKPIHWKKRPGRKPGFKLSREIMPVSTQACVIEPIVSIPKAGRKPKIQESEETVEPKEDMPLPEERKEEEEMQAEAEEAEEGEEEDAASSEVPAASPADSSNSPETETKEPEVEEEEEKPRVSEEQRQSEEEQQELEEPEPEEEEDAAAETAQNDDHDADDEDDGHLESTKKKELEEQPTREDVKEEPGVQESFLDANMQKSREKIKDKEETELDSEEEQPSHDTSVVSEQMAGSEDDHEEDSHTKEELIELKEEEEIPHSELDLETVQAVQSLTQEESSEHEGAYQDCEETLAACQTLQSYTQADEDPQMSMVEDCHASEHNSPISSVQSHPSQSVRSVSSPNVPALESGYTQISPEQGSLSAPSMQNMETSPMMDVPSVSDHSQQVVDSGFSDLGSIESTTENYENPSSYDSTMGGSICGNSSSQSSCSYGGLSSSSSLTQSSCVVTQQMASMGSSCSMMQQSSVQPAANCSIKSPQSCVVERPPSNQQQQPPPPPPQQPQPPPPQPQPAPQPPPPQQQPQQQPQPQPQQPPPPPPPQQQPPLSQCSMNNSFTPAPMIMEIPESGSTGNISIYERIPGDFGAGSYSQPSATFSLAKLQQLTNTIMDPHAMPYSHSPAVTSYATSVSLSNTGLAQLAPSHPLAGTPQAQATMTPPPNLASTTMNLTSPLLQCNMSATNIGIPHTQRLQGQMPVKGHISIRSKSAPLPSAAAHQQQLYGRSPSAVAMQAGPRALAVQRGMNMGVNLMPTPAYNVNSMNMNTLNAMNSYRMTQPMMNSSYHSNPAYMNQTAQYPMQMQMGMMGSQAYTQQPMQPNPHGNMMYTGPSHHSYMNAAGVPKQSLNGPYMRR
T3 sequence (O95251 whole entry): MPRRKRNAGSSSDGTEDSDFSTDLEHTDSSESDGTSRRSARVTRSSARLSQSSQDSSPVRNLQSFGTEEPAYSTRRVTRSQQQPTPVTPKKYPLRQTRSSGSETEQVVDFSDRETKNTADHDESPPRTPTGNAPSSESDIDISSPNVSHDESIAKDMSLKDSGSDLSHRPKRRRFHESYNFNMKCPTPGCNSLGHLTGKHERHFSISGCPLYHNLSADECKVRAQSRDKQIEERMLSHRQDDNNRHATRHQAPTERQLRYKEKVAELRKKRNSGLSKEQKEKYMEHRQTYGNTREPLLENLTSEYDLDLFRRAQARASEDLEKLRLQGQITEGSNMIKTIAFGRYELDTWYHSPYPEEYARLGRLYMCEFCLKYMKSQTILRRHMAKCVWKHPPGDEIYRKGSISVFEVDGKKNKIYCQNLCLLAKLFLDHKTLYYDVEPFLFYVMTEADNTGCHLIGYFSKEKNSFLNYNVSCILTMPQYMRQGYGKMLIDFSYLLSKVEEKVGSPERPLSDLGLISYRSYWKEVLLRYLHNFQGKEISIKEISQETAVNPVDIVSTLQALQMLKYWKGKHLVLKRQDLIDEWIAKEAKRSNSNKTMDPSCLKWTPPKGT
T4 sequence (Q14790 217-374 limits assumed): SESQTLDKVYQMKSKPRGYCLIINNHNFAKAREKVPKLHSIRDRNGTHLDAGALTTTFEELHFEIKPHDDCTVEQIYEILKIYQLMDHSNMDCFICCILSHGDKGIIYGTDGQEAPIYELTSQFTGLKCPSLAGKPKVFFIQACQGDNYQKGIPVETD
T4 sequence (Q14790 385-479 limits assumed): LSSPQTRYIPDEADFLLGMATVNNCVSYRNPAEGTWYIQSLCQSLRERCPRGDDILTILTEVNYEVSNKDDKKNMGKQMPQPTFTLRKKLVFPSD
Sequence of Histone deacetylase 3 (O15379 whole entry): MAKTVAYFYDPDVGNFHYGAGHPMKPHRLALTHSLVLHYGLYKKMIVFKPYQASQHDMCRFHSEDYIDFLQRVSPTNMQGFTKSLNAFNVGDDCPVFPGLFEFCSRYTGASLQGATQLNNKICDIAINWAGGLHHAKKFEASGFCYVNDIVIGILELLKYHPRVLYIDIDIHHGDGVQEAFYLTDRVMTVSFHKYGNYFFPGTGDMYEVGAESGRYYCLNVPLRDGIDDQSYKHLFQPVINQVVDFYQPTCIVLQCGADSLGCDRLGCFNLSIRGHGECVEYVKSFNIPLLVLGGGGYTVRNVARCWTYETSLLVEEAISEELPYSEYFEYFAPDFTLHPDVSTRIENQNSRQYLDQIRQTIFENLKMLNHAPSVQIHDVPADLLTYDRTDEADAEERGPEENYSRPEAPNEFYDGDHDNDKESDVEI

Ki [1]: 13.3 nM
Structure (SMILES): CSCC[C@H](NC(=O)[C@H](CC(=O)O)NC(C)=O)C(=O)N[C@@H](CCC(N)=O)C(=O)N[C@H](C=O)CC(=O)O (Ac-DMQD-aldehyde)

IC50 [2]: 17 nM
Kd [3]: 7 nM
IC50 [4]: 30 nM
Kd [5]: 34 nM
Structure (SMILES): Cc1cc(-c2ccccc2)cc(C(=O)NNS(=O)(=O)c2cccc(O)c2)c1F

IC50 [6]: 78 nM
IC50 [7]: 15 nM
IC50 [8]: 1.6 nM
Structure (SMILES): CC(C)C[C@@H](C=O)NC(=O)[C@@H](NS(=O)(=O)c1ccc(F)cc1)C(C)C

IC50 [9]: 15 nM
IC50 [10]: 3.82 nM
Structure (SMILES): CC(=O)N[C@@H](CC(C)C)C(=O)N[C@@H](CCC(=O)O)C(=O)N[C@@H](Cc1cnc[nH]1)C(=O)N[C@H](C=O)CC(=O)O (Ac-LEHD-aldehyde)

Kd [11]: 59 nM
Kd [12]: 53.8 nM
IC50 [13]: 20 nM
Structure (SMILES): COC(=O)[C@H](CO)NC(=O)[C@H](CCCCN(C)C1CC2CCC1C2)NC(=O)[C@H](CC(C)C)NC(=O)[C@H](C)NC(=O)[C@H](Cc1ccccc1)NC(=O)c1ccc(C(C)(C)C)cc1 (some centres undefined) ({Benzoyl(4-tBu)}-FAL[Lys(Me,2-norbornyl)]S-OMe)

inhibition [14]: 73%
Structure (SMILES): CC(C)(C)OC(=O)NCCCCCN(CCc1ccccc1)C(=O)n1cc(-c2ccc(OC(F)(F)F)cc2)nn1

Ki [15]: 41 nM
Structure (SMILES): CCC(NC(=O)C(CC(C)C)NC(=O)OCc1ccccc1)C(=O)C(=O)NCCCN1CCOCC1 (centres undefined)

IC50 [16]: 50.1 nM
Structure (SMILES): CN(C)Cc1ccc(S(=O)(=O)n2ccc(/C=C/C(=O)NO)c2)cc1

Kd [17]: 3.2 nM
Kd [18]: 5.2 nM
Kd [19]: 2.3 nM
Kd [20]: 2.9 nM
Kd [21]: 6.5 nM
Kd [22]: 7.6 nM
Kd [23]: 3.1 nM
Structure (SMILES): Cc1cc(-c2ccc3nc(C4CCOCC4)n(CCOC(F)(F)F)c3c2)cn(C)c1=O

Ki [24]: 1.6 nM
Ki [25]: 0.92 nM
Ki [26]: 12 nM
Structure (SMILES): CC(=O)N[C@@H](CC(=O)O)C(=O)N[C@@H](CCC(=O)O)C(=O)N[C@H](C(=O)N[C@H](C=O)CC(=O)O)C(C)C

IC50 [27]: 25000 nM
IC50 [28]: 37000 nM
Structure (SMILES): CCNC(=O)NCCSC[C@H]1O[C@@H](n2cnc3c(N)ncnc32)[C@H](O)[C@@H]1O

IC50 [29]: 72.8 nM
Structure (SMILES): CC(=O)N[C@@H](CC(C)C)C(=O)N[C@@H](CCC(=O)O)C(=O)N[C@@H](Cc1cnc[nH]1)C(=O)N[C@@H](CC(=O)O)C(=O)CCl (Ac-LEHD-CH2Cl)
